Read-outs that look alike come from different tables or passages of the source.
Key:
BTK = molecular target: T1, BTK (Homo sapiens, UniProt Q06187); experiment: z-lyte kinase assay, BTK; assay type: biochemical
T1 construct: purchased Invitrogen
Procedure: (§1) The inhibiting activities of the inventive compounds obtained in Examples 1 to 237 against EGFR WT and EGFR L858R/T790M kinase were determined using z-lyte kinase assay kit (Invitrogen, PV3191). The kinases used in the test were purchased from Invitrogen.
(§2) The compounds obtained in Examples 1 to 237 were each prepared to 10 mM DMSO solution, and a solution containing 4% DMSO were prepared therefrom and diluted to a concentration of 1 μM to 0.0001 μM. […] The test was conducted in a 384 well polystyrene flat-bottomed plates. 5 μl of the diluted solution of each compound was added to each well, and 10 μl of a mixture of peptide substrate and kinase in a suitable concentration and 5 μl of 5˜300 μM ATP solution were successively added thereto and the plate was incubated in a stirrer at room temperature for 60 minutes. After 60 mins, 10 μl of coloring reagent was added to the resulting mixture to initiate a fluorescence reaction of peptide substrate and a terminating solution was added thereto for terminating the reaction. A fluorescence value of each well was determined with a fluorescence meter (Molecular Device) at 400 nm (excitation filter) and 520 nm (emission filter). […] The calculation of IC50 and the result analysis were carried out by using Microsoft Excel.
(§3) The inhibiting activities of the inventive compounds obtained in Examples 1 to 237 against BTK and JAK3 kinases were determined, respectively. The procedure of Test Example 2 was repeated except that BTK and JAK3 kinases (Invitrogen) were employed instead of using the EGFR kinase.

[1] = system: NCI-H1975 (EGFR L858R/T790M); experiment: Inhibition test for growth of cancer cell expressing EGFR (MTS), NCI-H1975; assay type: cell-based; conditions: NCI-H1975 cells, 48 hours, MTS, read-out: GI50 NCI-H1975 EGFR L858R/T790M
Procedure: A431 cell line was incubated in a high-glucose DMEM (Dulbecco's Modified Eagle's Medium) supplemented with 10% fetal bovine serum (FBS) and 1% penicillin/streptomycin (Gibco BRL), and HCC827 and NCI-H1975 cell lines were incubated in an RPMI medium supplemented with 10% FBS, 1% penicillin/streptomycin and 1% sodium pyruvate.
The cancer cell lines stored in a liquid nitrogen tank were each quickly thawed at 37° C., and centrifuged to remove the medium. The resulting cell pellet was mixed with a culture medium, incubated in a culture flask at 37° C. under 5% CO2 for 2 to 3 days, and the medium was removed. The remaining cells were washed with DPBS (Dulbecco's Phosphate Buffered Saline) and separated from the flask by using Tripsin-EDTA. […] 100 μl of the diluted cell solution was added to each well of a 96-well plate, and incubated at 37° C. under 5% CO2 for 1 day.
In case that the test compound was not soluble in DMSO, 1% HCl was added thereto and treated in a 40° C. water bath for 30 mins until a complete dissolution was attained. The DMSO solution containing test compound was diluted with a culture medium to a final concentration of 100 μM, and then diluted 10 times serially to 10^−6 μM (a final concentration of DMSO was less than 1%).
The medium was removed from each well of the 96-well plate. And then, 100 μl of a test compound solution was added to each well holding the cultured cells, and the plate was incubated at 37° C. under 5% CO2 for 72 hours (except that NCI-H1975 cells were incubated for 48 hours). After removing the medium from the plate, 50 μA of 10% trichloroacetic acid was added to each well, and the plate was kept at 4° C. for 1 hour to fix the cells to the bottom of the plate. The added 10% trichloroacetic acid solution was removed from each well, the plate was dried, 100 μA of an SRB (Sulforhodamine-B) dye solution at a concentration of 0.4% dissolved in 1% acetic acid was added thereto, and the resulting mixture was reacted for 10 mins at room temperature. After removing the dye solution, the plate was washed with water, and well dried. When the dye solution was not effectively removed by water, 1% acetic acid was used. 150 μA of 10 mM trisma base was added to each well, and the absorbance at 540 nm wavelength was determined with a microplate reader.

[2] = system: HCC827 (EGFR DelE746_A750); experiment: Inhibition test for growth of cancer cell expressing EGFR (SRB), HCC827; assay type: cell-based; conditions: HCC827 cells, 72 hours, SRB, read-out: GI50 HCC827 EGFR DelE746_A750;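 also: cells in 96-well plates exposed to tenfold serial dilutions from 100 µM, fixed with trichloroacetic acid, SRB-stained, absorbance read at 540 nm, DMSO under 1%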
JAK3 = molecular target: T2, JAK3 (Homo sapiens, UniProt P52333); experiment: z-lyte kinase assay, JAK3; assay type: biochemical
T2 construct: purchased Invitrogen
T2 sequence (P52333 1-1124): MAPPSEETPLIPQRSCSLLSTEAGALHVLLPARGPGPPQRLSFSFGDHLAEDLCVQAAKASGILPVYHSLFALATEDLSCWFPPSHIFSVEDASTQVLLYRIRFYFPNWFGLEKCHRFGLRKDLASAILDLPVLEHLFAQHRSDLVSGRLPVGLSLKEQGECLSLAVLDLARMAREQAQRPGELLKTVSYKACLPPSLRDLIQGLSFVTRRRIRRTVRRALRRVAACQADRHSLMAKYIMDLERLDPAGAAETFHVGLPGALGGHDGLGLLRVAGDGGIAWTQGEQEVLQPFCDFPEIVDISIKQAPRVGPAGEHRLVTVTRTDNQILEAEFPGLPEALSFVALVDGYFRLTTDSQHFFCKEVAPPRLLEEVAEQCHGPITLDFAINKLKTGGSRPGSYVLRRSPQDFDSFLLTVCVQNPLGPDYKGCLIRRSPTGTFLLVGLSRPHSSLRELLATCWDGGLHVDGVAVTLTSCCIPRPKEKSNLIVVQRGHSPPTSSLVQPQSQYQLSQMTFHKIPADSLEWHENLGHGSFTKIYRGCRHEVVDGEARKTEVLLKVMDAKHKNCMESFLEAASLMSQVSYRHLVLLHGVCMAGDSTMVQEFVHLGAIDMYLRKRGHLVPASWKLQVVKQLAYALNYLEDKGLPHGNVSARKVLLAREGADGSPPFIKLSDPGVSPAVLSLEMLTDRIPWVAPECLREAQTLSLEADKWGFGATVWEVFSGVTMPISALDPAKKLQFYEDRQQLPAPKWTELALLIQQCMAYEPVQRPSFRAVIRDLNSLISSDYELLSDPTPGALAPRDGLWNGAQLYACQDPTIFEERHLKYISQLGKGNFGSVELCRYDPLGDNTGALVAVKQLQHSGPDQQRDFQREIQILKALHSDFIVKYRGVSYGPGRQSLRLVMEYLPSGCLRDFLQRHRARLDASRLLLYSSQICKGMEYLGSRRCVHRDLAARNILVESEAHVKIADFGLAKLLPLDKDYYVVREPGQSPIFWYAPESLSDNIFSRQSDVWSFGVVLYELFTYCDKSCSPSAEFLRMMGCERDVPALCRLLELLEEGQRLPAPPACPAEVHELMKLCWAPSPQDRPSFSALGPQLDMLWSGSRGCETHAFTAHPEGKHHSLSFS
Procedure: as §1, §2, §3

A431 (EGFR WT) = experiment: Inhibition test for growth of cancer cell expressing EGFR (SRB), A431; assay type: cell-based; conditions: Homo sapiens, A-431; A431 cells, 72 hours, SRB; read-out: GI50 A431 EGFR WT;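 also: cells in 96-well plates exposed to tenfold serial dilutions from 100 µM down to 10^−6 µM, DMSO under 1%, SRB staining read as absorbance at 540 nm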

T1 sequence (Q06187 whole entry): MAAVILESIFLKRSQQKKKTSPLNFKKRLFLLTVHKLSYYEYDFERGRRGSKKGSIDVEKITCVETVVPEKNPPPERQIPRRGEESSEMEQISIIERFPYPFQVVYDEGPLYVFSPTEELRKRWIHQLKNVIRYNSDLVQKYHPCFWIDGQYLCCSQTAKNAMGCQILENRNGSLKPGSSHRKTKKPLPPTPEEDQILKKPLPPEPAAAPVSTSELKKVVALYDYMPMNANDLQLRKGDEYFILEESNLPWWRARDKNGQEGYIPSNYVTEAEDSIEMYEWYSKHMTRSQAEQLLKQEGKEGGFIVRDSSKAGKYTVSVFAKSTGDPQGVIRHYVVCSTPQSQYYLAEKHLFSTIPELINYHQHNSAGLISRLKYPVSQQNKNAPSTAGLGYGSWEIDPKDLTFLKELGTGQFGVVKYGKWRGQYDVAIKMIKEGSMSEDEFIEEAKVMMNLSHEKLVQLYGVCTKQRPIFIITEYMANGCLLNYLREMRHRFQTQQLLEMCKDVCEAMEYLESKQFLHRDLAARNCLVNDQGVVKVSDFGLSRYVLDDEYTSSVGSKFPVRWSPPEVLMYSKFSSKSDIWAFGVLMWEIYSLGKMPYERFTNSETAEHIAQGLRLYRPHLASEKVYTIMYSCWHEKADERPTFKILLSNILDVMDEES

Compound | IC50 (BTK) | GI50 ([1]; Homo sapiens) | GI50 ([2]; Homo sapiens, HCC827, 72 h) | IC50 (JAK3) | GI50 [1] | GI50 [2] | GI50 (A431 (EGFR WT))
C=CC(=O)Nc1cccc(Oc2nc(Nc3ccc(CN4CCN(C)CC4)nc3)nc3ccsc23)c1 [Example 169] | ≤ 50 nM | 50 to 100 nM | < 50 nM | 50 to 100 nM | – | – | –
C=CC(=O)Nc1cccc(Oc2nc(Nc3ccc(S(=O)(=O)NCCN(C)C)cc3)nc3ccsc23)c1 [Example 72] | ≤ 50 nM | < 50 nM | < 50 nM | ≤ 50 nM | – | – | –
C=CC(=O)Nc1cccc(Oc2nc(Nc3ccc(N4CCC(N5CCCC5)CC4)nc3)nc3ccsc23)c1 [Example 151] | 50 to 100 nM | – | – | 50 to 100 nM | – | – | –
C=CC(=O)Nc1cccc(Oc2nc(Nc3ccc(S(=O)(=O)NC4CCN(C(C)C)CC4)cc3)nc3ccsc23)c1 [Example 74] | ≤ 50 nM | – | – | 50 to 100 nM | – | – | –
C=CC(=O)Nc1cccc(Oc2nc(Nc3ccc(N4CC[C@@H](n5ccnc5)C4)cc3)nc3ccsc23)c1 [Example 36] | 50 to 100 nM | – | – | 50 to 100 nM | < 50 nM | 50 to 100 nM | –
C=CC(=O)Nc1cccc(Oc2nc(Nc3ccc(C4C(=O)N(C)CCN4C)cc3)nc3ccsc23)c1 (stereo not shown) [Example 105] | 50 to 100 nM | – | – | ≤ 50 nM | – | – | –
C=CC(=O)Nc1cccc(Oc2nc(Nc3ccc(CN4CCC(N(C)C)C4)cc3)nc3ccsc23)c1 (stereo not shown) [Example 177] | ≤ 50 nM | – | – | ≤ 50 nM | – | – | –
C=CC(=O)Nc1cccc(Oc2nc(Nc3ccc(N4CCN(C)CC4)c(Cl)c3)nc3ccsc23)c1 [Example 7] | ≤ 50 nM | < 50 nM | < 50 nM | 50 to 100 nM | – | – | –
C=CC(=O)Nc1cccc(Oc2nc(Nc3ccc(NC4CCN(C(C)C)CC4)nc3)nc3ccsc23)c1 [Example 154] | ≤ 50 nM | 50 to 100 nM | 50 to 100 nM | 50 to 100 nM | – | – | –
C=CC(=O)Nc1cccc(Oc2nc(Nc3ccc(S(N)(=O)=O)cc3)nc3ccsc23)c1 [Example 70] | ≤ 50 nM | – | – | ≤ 50 nM | – | – | –
C=CC(=O)Nc1cccc(Oc2nc(Nc3ccc(P(=O)(OCC)OCC)cc3)nc3ccsc23)c1 [Example 67] | ≤ 50 nM | – | – | ≤ 50 nM | – | – | –
C=CC(=O)Nc1cccc(Oc2nc(Nc3ccc(N4CCC(CN(C)C)CC4)cc3)nc3ccsc23)c1 [Example 41] | 50 to 100 nM | < 50 nM | < 50 nM | 50 to 100 nM | – | – | –
C=CC(=O)Nc1cccc(Oc2nc(Nc3ccc(NC4CCN(C)CC4)c(Cl)c3)nc3ccsc23)c1 [Example 141] | ≤ 50 nM | – | – | 50 to 100 nM | – | – | –
C=CC(=O)Nc1cccc(Oc2nc(Nc3ccc(C(=O)N4CCOCC4)cc3)nc3ccsc23)c1 [Example 88] | 50 to 100 nM | – | – | 50 to 100 nM | – | – | –
C=CC(=O)Nc1cccc(Oc2nc(Nc3ccc(CN4CCC(O)CC4)cc3)nc3ccsc23)c1 [Example 179] | ≤ 50 nM | – | – | ≤ 50 nM | – | – | –
C=CC(=O)Nc1cccc(Oc2nc(Nc3ccc(C(=O)N4CCN(C)CC4)cc3)nc3ccsc23)c1 [Example 89] | ≤ 50 nM | – | – | 50 to 100 nM | – | – | –
C=CC(=O)Nc1cccc(Oc2nc(Nc3ccc(C4=NCCCN4)cc3)nc3ccsc23)c1 [Example 104] | ≤ 50 nM | – | – | ≤ 50 nM | – | – | –
C=CC(=O)Nc1cccc(Oc2nc(Nc3ccc(C(=O)N4CCN(C5CCN(C)CC5)CC4)cc3)nc3ccsc23)c1 [Example 91] | ≤ 50 nM | – | – | 50 to 100 nM | – | – | –
C=CC(=O)Nc1cccc(Oc2nc(Nc3ccc(N4CCN(C(C)C)CC4)nc3)nc3ccsc23)c1 [Example 146] | 50 to 100 nM | – | – | 50 to 100 nM | – | – | –

Compound | IC50 (BTK) | GI50 ([1]; Homo sapiens) | GI50 ([2]; Homo sapiens, HCC827, 72 h) | IC50 (JAK3) | GI50 [1] | GI50 [2] | GI50 (A431 (EGFR WT))
C=CC(=O)Nc1cccc(Oc2nc(Nc3ccc([S+](C)[O-])cc3)nc3ccsc23)c1 (stereo not shown) [Example 68] | 50 to 100 nM | – | – | ≤ 50 nM | – | – | –
C=CC(=O)Nc1cccc(Oc2nc(Nc3ccc(S(=O)(=O)NC4CCN(C)CC4)cc3)nc3ccsc23)c1 [Example 73] | ≤ 50 nM | – | – | 50 to 100 nM | – | – | –
C=CC(=O)Nc1cccc(Oc2nc(Nc3ccc(C(=O)NC4CCN(C)CC4)c(C)c3)nc3ccsc23)c1 [Example 145] | ≤ 50 nM | – | – | ≤ 50 nM | – | – | –
C=CC(=O)Nc1cccc(Oc2nc(Nc3ccc(CN4CCN(C5CCN(C)CC5)CC4)cc3)nc3ccsc23)c1 [Example 186] | – | < 50 nM | < 50 nM | – | – | – | > 1000 nM
C=CC(=O)Nc1cccc(Oc2nc(Nc3ccc(N4CCC(N5CCCCC5)CC4)nc3)nc3ccsc23)c1 [Example 152] | ≤ 50 nM | – | – | 50 to 100 nM | – | – | –
C=CC(=O)Nc1cccc(Oc2nc(Nc3ccc(C[S+](C)[O-])cc3)nc3ccsc23)c1 (stereo not shown) [Example 94] | – | < 50 nM | < 50 nM | – | – | – | > 1000 nM
C=CC(=O)Nc1cccc(Oc2nc(Nc3ccc(N4CCCCC4)cc3)nc3ccsc23)c1 [Example 37] | – | < 50 nM | 100 to 1000 nM | – | – | – | > 1000 nM
C=CC(=O)Nc1ccc(F)c(Nc2nc(Nc3ccc(N4CCN(C)CC4)cc3)nc3ccsc23)c1 [Example 218, N-(4-fluoro-3-(2-(4-(4-methyl-piperazin-1-yl)-phenylamino)-thieno[3,2-d]pyrimidin-4-ylamino)-phenyl)-acrylamide] | – | 50 to 100 nM | < 50 nM | – | – | – | > 1000 nM
C=CC(=O)Nc1cccc(Oc2nc(Nc3ccc(C4CCN(C(C)C)CC4)cc3)nc3ccsc23)c1 [Example 54] | – | < 50 nM | < 50 nM | – | – | – | > 1000 nM
C=CC(=O)Nc1cccc(Oc2nc(Nc3ccc(C(=O)NCCN4CCCC4)cc3)nc3ccsc23)c1 [Example 80] | – | < 50 nM | < 50 nM | – | – | – | > 1000 nM
C=CC(=O)Nc1cccc(Oc2nc(Nc3ccc(C(C)N4CCN(CC)CC4)cc3)nc3ccsc23)c1 (stereo not shown) [Example 184] | – | < 50 nM | < 50 nM | – | – | – | > 1000 nM
C=CC(=O)Nc1cccc(Oc2nc(Nc3ccc(C(=O)N4CCC(NC)C4)cc3)nc3ccsc23)c1 (stereo not shown) [Example 85] | ≤ 50 nM | – | – | ≤ 50 nM | – | – | –
C=CC(=O)Nc1cccc(Oc2nc(Nc3ccc(N4CCN(CC)CC4)cc3OC)nc3ccsc23)c1 [Example 112] | – | < 50 nM | < 50 nM | – | – | – | > 1000 nM
C=CC(=O)Nc1cccc(Oc2nc(Nc3ccc(N4CCN(C)CC4)c(OC)c3)nc3ccoc23)c1 [Example 234] | – | < 50 nM | < 50 nM | – | – | – | > 1000 nM
C=CC(=O)Nc1cccc(Oc2nc(Nc3ccc(C(=O)N4CCN(CC)CC4)cc3)nc3ccsc23)c1 [Example 90] | – | < 50 nM | < 50 nM | – | – | – | > 1000 nM
C=CC(=O)Nc1cccc(Oc2nc(Nc3ccc(N4CCN(C(=O)CN(C)C)CC4)cc3)nc3ccsc23)c1 [Example 21] | ≤ 50 nM | – | – | 50 to 100 nM | – | – | –
C=CC(=O)Nc1cccc(Oc2nc(Nc3ccc(N4CCC(C(=O)O)CC4)cc3)nc3ccsc23)c1 [Example 44] | 50 to 100 nM | – | – | 50 to 100 nM | – | – | –
C=CC(=O)Nc1cccc(Oc2nc(Nc3ccc(N4CCN(C5CCN(C)CC5)CC4)cc3)nc3ccsc23)c1 [Example 26] | – | < 50 nM | < 50 nM | – | – | – | > 1000 nM
